Entries after “also recorded” stand apart in the source; their conditions may differ. Read-outs that look alike come from different tables or passages of the source. Each block holds one compound with its values, some of them ahead of it.
Assays:
[1] = test system: HCE (human ciliary epithelial) cell line, NPE cells; test: Cell volume (shrinkage) of NPE cells in isosmotic solution, Coulter Counter, 5 μM gramicidin; assay type: cell-based; settings: 300 nM MRS-1097, 100 nM MRS-1191, 100 nM MRS-1523, 10 μM adenosine
Protocol: A 0.5-ml aliquot of the HCE cell suspension in DMEM was added to 20 ml of each test solution, which contained (in mM): 110.0 NaCl, 15.0HEPES [4-(2-hydroxyethyl)-1-piperazineethanesulfonic acid], 2.5 CaCl2, 1.2 MgCl2, 4.7 KCl, 1.2 KH2PO4, 30.0 NaHCO3, and 10.0 glucose, at a pH of 7.4 and osmolality of 298-305 mOsm. Parallel aliquots of cells were studied on the same day. One aliquot usually served as a control, and the others were exposed to different experimental conditions at the time of suspension. The same amount of solvent vehicle (dimethylformamide, DMSO or ethanol) was always added to the control and experimental aliquots. The sequence of studying the suspensions was varied to preclude systematic time-dependent artifacts (Civan et al., Exp. Eye Res. 54:181-191, 1992).
Cell volumes of isosmotic suspensions were measured with a Coulter Counter (model ZBI-Channelyzer II), using a 100-μm aperture (Civan et al., supra., 1994). As previously described (Wax et al., supra., 1993), the cell volume (vC) of the suspension was taken as the peak of the distribution function. Cell shrinkage was fit as a function of time (t) to a monoexponential function:
vC=v∞+(v0−v∞)−[e^−(t−t^0^)/τ] {1}
where v∞ is the steady-state cell volume, v0 is the cell volume at the first point (t0) of the time course to be fit, and τ is the time constant of the shrinkage. For purposes of data reduction, the data were normalized to the first time point, taken to be 100% isotonic volume. Fits were obtained by nonlinear least-squares regression analysis, permitting both v∞and τ to be variables.
In order to differentiate among these receptors, the experiments were repeated in the present study using a series of agonists and antagonists selective for these receptors. As we wished to identify the effects of these receptors specifically on Cl^− channels, 5 μM gramicidin D was included in all solutions to eliminate any potential contribution from K^+ channels. This ionophore readily partitions into plasma membranes to form a cation-selective pore, and is widely used for studying volume regulation (Hoffmann et al., in Interaction of Cell Volume and Cell Function, Lang et al., eds., Springer, Heidelberg, Germany, pp. 188-248, (ACEP Series 14), 1993)). Under these conditions, release of cell Cl^− becomes the rate-limiting factor in both hypo-(Civan et al., Exp. Eye Res. 54:181-191, 1992) and isoosmotic cell shrinkage (Carre et al., supra., 1997).

[2] = biological target: T1, human A3 receptor (Homo sapiens, UniProt P0DMS8); settings: read-out: Ki for binding to human A3 receptors; cited from earlier work
T1 sequence (P0DMS8 1-318): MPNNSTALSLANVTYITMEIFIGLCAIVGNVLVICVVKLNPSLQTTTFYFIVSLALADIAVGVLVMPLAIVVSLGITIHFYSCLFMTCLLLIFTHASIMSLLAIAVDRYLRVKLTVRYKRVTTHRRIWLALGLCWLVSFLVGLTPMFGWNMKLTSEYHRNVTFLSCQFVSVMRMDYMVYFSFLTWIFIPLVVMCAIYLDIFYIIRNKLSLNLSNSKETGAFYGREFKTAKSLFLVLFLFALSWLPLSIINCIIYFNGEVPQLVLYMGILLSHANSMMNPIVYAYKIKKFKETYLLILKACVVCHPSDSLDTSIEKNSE

[3] = biological target: human A2 receptors; settings: read-out: Ki for binding to human A2 receptors; cited from earlier work
[4] = biological target: T1, human A3 receptor; test: Radioligand binding, [125I]AB-MECA, HEK-293 cell membranes; parameters: host or cells: HEK-293; settings: read-out: Ki(hA3)
Protocol: Natl. Acad. Sci. […] Natl. Acad. Sci. U.S.A. 89:7432-7436, 1992) was performed as described at 4° C. (Olah et al., Mol. Pharmacol. 45:978-982, 1994). The assay medium consisted of a buffer containing 10 mM Mg^2+, 50 mM Tris, 3 units/mL adenosine deaminase, and 1 mM EDTA, at pH 8.0 (4° C.). […] Incubations were terminated by rapid filtration over Whatman GF/B filters, using a Brandell cell harvester (Brandell, Gaithersburg, MD). The tubes were rinsed three times with 3 mL buffer each. At least five different concentrations of competitor, spanning 3 orders of magnitude adjusted appropriately for the IC50 of each compound, were used. IC50 values, calculated with the nonlinear regression method implemented in the InPlot program (Graph-PAD, San Diego, Calif.), were converted to apparent Ki values using the Cheng-Prusoff equation (Cheng et al., Biochem.

[5] = biological target: T2, A1 receptors (Rattus norvegicus, UniProt P25099); test: Radioligand binding, [3H]R-PIA, rat cerebral cortex membranes
T2 construct: A1 receptors from rat cerebral cortex membranes; from tissue; host or cells: rat cerebral cortex membranes
T2 sequence (P25099 1-326): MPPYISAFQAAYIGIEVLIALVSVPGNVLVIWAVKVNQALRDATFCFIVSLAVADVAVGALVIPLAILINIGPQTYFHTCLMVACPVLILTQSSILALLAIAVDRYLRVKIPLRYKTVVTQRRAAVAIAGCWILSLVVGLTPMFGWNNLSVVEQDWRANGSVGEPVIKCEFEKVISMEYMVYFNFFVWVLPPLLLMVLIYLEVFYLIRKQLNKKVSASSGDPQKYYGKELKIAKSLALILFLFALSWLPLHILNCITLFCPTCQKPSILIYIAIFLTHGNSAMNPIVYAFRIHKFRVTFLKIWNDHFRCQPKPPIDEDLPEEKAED
Protocol: Radioligand binding studies. Binding of [^3H]R-N^6-phenylisopropyladenosine ([^3H]R-PIA) to A1 receptors from rat cerebral cortex membranes and of [^3H]-2-[4-[(2-carboxyethyl)phenyl]ethylamino]-5′-N-ethylcarbamoyladenosine ([^3H]CGS 21680) to A2A receptors from rat striatal membranes was performed as described previously (Schwabe et al., Naunyn Schmiedeberg Arch. Pharmacol. 313:179-187, 1980; Jarvis et al., J. Pharmacol. Exp. Ther. 251:888-893, 1989) Adenosine deaminase (3 units/mL) was present during the preparation of the brain membranes, in a pre-incubation of 30 min at 30° C., and during the incubation with the radioligands. Nonspecific binding was determined in the presence of 10 μM (A1 receptors) or 20 μM (A2A receptors)2-chloroadenosine.
All non-radioactive compounds were initially dissolved in DMSO, and diluted with buffer to the final concentration, where the amount of DMSO never exceeded 1%. Incubations were terminated by rapid filtration over Whatman GF/B filters, using a Brandell cell harvester (Brandell, Gaithersburg, MD). The tubes were rinsed three times with 3 mL buffer each.
At least five different concentrations of competitor, spanning 3 orders of magnitude adjusted appropriately for the IC50 of each compound, were used.

[6] = test system: bovine PE cells, Cl− currents; test: Ruptured-patch whole-cell recording of PE cells; assay type: cell-based
Excerpt: Harvested cultured PE cells were resuspended and permitted to settle and attach to glass coverslips, which were then transferred to a perfusion chamber (Carré et al., supra., 1997). Solutions were designed to isolate any Cl^- current activated by ATP. […] (Am. J. Physiol., 261:[…]-[…], 1991), as previously described (Carré et al., supra., 1997). Cells were patched while still round, usually one day after dissociation. […] Data were acquired at 1 kHz using Axopatch-1B electronics and associated headstage (Axon Instruments, Foster City, Calif.) and filtered at 500 Hz with a Bessel filter. The micropipettes were double-pulled from Corning No. 7052 glass, coated with Sylgard and fire polished. The membrane potential was held without series-resistance compensation at 0 mV and stepped to voltages over the range from -100 to +100 mV in 20 mV increments for 200 msec periods. The mean current measured between 150-200 msec was used to obtain the patch-clamp data used here. The data presented in FIG. 2 was obtained at -60 mV [the approximate membrane potential (Green et al., Invest. Ophthalmol. Vis. Sci., 26:371-381, 1985)] to facilitate comparison with the volumetric data.

[7] = test system: bovine pigmented ciliary epithelial (PE) cells; test: Cell volume (shrinkage) of PE cells in isoosmotic suspension, Coulter Counter; assay type: cell-based
[8] = test system: HCE (human ciliary epithelial) cell line, NPE cells; settings: read-out: EC50 for isoosmotic shrinkage of cultured human NPE cells; cited from earlier work
[9] = Water solubility; assay type: physicochemical; settings: room temperature
Protocol: 100 μL of de-ionized water was saturated with 5 mg 11 with heating. After cooling to room temperature and the disappearance of turbidity, 50 μL of the clear supernatant was withdrawn and lyophilized to give 1.1 mg of 11.

[10] = biological target: T1, human A3 receptor; test: Adenylate cyclase assay, CHO cell membranes, forskolin stimulated; assay type: biochemical

SMILES: CCCOC(=O)c1c(-c2ccccc2)nc(CC)c(C(=O)SCC)c1CCC [MRS-1523]
- effect of A3 antagonist on adenosine-stimulated isotonic shrinkage [1]: prevented the characteristic shrinkage
- effect of A3 antagonist on adenosine-stimulated isotonic shrinkage ([1]; listed as MRS 1523): eliminated the actions of adenosine; also recorded: blocked the shrinkage
- Ki [2]: 19 nM
- Ki [3]: 2050 nM

SMILES: CCOC(=O)c1c(CC)c(C(=O)SCC)c(CC)[n+](C)c1C1CCCC1 [Compound 23, 1-Methyl-2,4-diethyl-3-(ethylsulfanylcarbonyl)-5-ethyloxycarbonyl-6-cyclopentylpyridinium Iodide]
- Ki [4]: 695 nM
- Ki [5]: 11500 nM

SMILES: Nc1ncnc2c1ncn2[C@@H]1O[C@H](COP(=O)(O)OP(=O)(O)OP(=O)(O)O)[C@@H](O)[C@H]1O [ATP]
- effect of ATP on whole-cell current ([6]; 1 mM ATP, holding potential −60 mV, cultured bovine PE cell): reversible and reproducible increases in inward current
- trials with current activated by ATP ([6]; cultured PE cells): 10/17
- trials with current activated by ATP ([6]; fresh bovine PE cells): 3/9
- steady-state cell volume (v∞) ([7]; 3 μM ATP alone, FIG. 8B): 98.0±0.4%
- time constant of the shrinkage (τ) ([7]; 3 μM ATP alone, FIG. 8B): 10.8 ± 4.9 min
- steady-state cell volume (v∞) ([7]; 10 μM ATP alone, FIG. 8A): 94.3±0.3%
- time constant of the shrinkage (τ) ([7]; 10 μM ATP alone, FIG. 8A): 2.8 ± 0.7 min
- steady-state cell volume (v∞) ([7]; 10 μM ATP alone, FIG. 8B): 97.2±0.3%
- time constant of the shrinkage (τ) ([7]; 10 μM ATP alone, FIG. 8B): 1.6 ± 1.0 min
- steady-state cell volume (v∞) ([7]; 10 μM ATP alone, FIG. 10A): 97.2±0.3%
- time constant of the shrinkage (τ) ([7]; 10 μM ATP alone, FIG. 10A): 1.6 ± 1.0 min
- steady-state cell volume (v∞) ([7]; 100 μM ATP alone, FIG. 8A): 94.3±0.3%
- time constant of the shrinkage (τ) ([7]; 100 μM ATP alone, FIG. 8A): 2.8 ± 0.7 min
- steady-state cell volume (v∞) ([7]; 100 μM ATP alone, FIG. 13A): 94.9±1.0%
- time constant of the shrinkage (τ) ([7]; 100 μM ATP alone, FIG. 13A): 45.2 ± 14.0 min
- steady-state cell volume (v∞) ([7]; 100 μM ATP alone, FIG. 13B): 87.5±1.8%
- time constant of the shrinkage (τ) ([7]; 100 μM ATP alone, FIG. 13B): 45.2 ± 14.0 min
- steady-state cell volume (v∞) ([7]; 100 μM ATP alone, FIG. 13C): 93.9±1.7%
- time constant of the shrinkage (τ) ([7]; 100 μM ATP alone, FIG. 13C): 34.8 ± 13.8 min
- steady-state cell volume (v∞) ([7]; 100 μM ATP alone, FIG. 14B): 96.8±0.5%
- time constant of the shrinkage (τ) ([7]; 100 μM ATP alone, FIG. 14B): 8.3 ± 3.7 min
- steady-state cell volume (v∞) ([7]; 10 mM ATP alone, FIG. 10A): 97.7±0.2%
- time constant of the shrinkage (τ) ([7]; 10 mM ATP alone, FIG. 10A): 2.2 ± 0.8 min
- share of volumetric studies in which ATP alone produced shrinkage ([7]; ATP alone): approximately 15%
- EC50 ([7]; in the presence of tamoxifen, read-out: ATP concentration eliciting approximately half-maximal response): ~3000 nM

SMILES: Nc1ncnc2c1ncn2[C@@H]1O[C@H](CO)[C@@H](O)[C@H]1O [adenosine]
- EC50 [8]: 3000 to 10000 nM

- Ki [4]: 6400 ± 780 nM
- displacement at rat A1 receptors ([5]; at 100 μM): 34 ±1%
SMILES: CCOC(=O)C1=C(C2CCCC2)N(C)C(CC)=C(C(=O)SCC)C1CC (stereo not shown) [Compound 25, 1-Methyl-2,4-diethyl-3-(ethylsulfanylcarbonyl)-5-ethyloxycarbonyl-6-cyclopentyl-1,4-dihydropyridine]

SMILES: O=C(O)c1cc([N+](=O)[O-])ccc1NCCCc1ccccc1 [NPPB, 5-nitro-2-(3-phenylpropylamino)-benzoate]
- reduction of the ATP-enhanced currents ([6]; 100 μM NPPB, −60 mV): 56±11%
- effect of NPPB on ATP-stimulated current ([6]; FIG. 9B): partially inhibited
- effect of Cl− channel blocker on ATP, tamoxifen-activated shrinkage ([7]; DIDS 500 μM, NPPB 100 μM): inhibited the volume reduction; also recorded: abolished the synergistic shrinkage

SMILES: CCOC(=O)c1c(CC)c(C(=O)SCC)c(CC)[n+](C)c1-c1ccccc1.[I-] [Compound 11, 1-Methyl-2,4-Diethyl-3-(ethylsulfanylcarbonyl)-5-ethyloxycarbonyl-6-phenylpyridinium Iodide]
- Ki [4]: 219 nM
- solubility ([9]; de-ionized water, water, thermodynamic from solid): 42.8 mM
- water solubility ([9]; listed as MRS 1649): 43 mM
- KB relative to the Ki value in binding to human A3 receptors [10]: approximately 1.8 times
- shift of the IB-MECA concentration response curve to the right ([10]; 10 μM of 11): 26 fold
- Kb ([10]; read-out: KB value (Schild analysis)): 399 nM

Reference: US6528516B1, “Methods for reducing intraocular pressure using A3 adenosine receptor antagonists” (Trustees of the University of Pennsylvania, The Center for …, priority 1998, dated 2003)
